# Reference: ChEMBL document CHEMBL1201862, “PubChem BioAssay data set” (2004)
# Active and inactive are the calls of the source.
# Tests used:
# [1] = target: T1, Apoptotic protease-activating factor 1 (Homo sapiens, UniProt O14727); assay type: functional
# T1 sequence (O14727 whole entry): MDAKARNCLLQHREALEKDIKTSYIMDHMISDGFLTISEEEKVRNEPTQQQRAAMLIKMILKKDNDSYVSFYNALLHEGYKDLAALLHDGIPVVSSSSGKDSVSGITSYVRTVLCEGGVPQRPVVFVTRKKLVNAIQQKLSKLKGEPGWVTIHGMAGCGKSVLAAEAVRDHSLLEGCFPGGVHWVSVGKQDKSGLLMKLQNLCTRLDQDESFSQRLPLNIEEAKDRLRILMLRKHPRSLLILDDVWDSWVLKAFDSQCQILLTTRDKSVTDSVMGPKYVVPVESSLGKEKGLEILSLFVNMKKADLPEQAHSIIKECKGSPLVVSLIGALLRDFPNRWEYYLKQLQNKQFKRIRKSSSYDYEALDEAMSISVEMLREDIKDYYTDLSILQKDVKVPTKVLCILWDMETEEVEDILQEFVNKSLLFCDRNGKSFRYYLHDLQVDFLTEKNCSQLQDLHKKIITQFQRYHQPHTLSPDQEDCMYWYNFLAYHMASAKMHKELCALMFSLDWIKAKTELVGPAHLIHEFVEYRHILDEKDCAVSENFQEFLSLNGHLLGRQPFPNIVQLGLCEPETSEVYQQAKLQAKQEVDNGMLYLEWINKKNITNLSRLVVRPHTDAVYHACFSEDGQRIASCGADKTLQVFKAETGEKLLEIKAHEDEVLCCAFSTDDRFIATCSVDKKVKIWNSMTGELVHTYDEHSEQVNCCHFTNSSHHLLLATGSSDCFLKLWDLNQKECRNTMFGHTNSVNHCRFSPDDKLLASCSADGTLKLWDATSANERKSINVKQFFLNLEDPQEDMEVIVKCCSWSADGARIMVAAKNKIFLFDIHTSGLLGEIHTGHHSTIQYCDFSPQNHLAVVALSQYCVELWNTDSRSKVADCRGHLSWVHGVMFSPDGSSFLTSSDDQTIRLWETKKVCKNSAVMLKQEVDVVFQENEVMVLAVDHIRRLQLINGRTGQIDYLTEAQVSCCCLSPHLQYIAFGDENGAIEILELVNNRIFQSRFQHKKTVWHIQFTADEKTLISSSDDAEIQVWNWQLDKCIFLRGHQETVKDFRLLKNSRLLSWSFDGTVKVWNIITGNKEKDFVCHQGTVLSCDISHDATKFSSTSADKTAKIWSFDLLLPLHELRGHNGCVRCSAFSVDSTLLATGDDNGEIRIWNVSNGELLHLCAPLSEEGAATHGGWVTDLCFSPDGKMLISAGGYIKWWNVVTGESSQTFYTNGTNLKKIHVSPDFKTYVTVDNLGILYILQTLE
# [2] = test system: INS1; assay: beta cell apoptosis inhibitors, cytokine rescue, dose response, luminescence, retest (AID 449756); assay type: functional, cell-based; settings: Rattus norvegicus;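 further: cell death triggered by IL-1 beta plus TNF-alpha plus IFN-gamma mixture; protective hits raise ATP signal compared with cytokine alone wells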
# [3] = cells
# [4] = target: Major prion protein (Homo sapiens, UniProt P04156); assay type: functional, cell-based
# [5] = cytotoxicity toward NIH3T3 fibroblasts, dose response, counter-screen, cell-based, ATP luminescence, mouse fibroblasts (AID 2010); assay type: functional;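 further: cells exposed to compound for about 90 hours before reading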
# [6] = target: T2, DNA repair protein RAD52 homolog (Homo sapiens, UniProt P43351); assay type: functional, biochemical
# T2 sequence (P43351 whole entry): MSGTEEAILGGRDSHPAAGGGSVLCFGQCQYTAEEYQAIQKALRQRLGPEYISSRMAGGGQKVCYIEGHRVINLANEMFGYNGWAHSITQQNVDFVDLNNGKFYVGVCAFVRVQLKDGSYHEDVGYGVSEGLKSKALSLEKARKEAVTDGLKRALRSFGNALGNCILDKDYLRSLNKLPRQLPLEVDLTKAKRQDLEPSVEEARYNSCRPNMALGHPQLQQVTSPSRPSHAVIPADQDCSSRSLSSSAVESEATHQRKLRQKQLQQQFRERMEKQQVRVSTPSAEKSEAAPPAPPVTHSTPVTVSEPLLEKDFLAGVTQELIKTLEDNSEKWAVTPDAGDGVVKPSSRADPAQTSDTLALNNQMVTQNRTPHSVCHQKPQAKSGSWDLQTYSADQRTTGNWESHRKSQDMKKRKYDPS
# [7] = inhibitors of intracellular T. cruzi replication, confirmation, NIH3T3 host cells, beta-gal luminescence (AID 2044); assay type: functional, cell-based;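 further: intracellular parasites grown in NIH/3T3 mouse fibroblasts as host cells; luminescent beta-galactosidase reporter signal from transgenic T. cruzi replicating inside host cells; inhibitors lower the luminescence signal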
# [8] = target: T3, Protein skinhead-1 (Caenorhabditis elegans, UniProt P34707); assay type: functional
# T3 sequence (P34707 whole entry): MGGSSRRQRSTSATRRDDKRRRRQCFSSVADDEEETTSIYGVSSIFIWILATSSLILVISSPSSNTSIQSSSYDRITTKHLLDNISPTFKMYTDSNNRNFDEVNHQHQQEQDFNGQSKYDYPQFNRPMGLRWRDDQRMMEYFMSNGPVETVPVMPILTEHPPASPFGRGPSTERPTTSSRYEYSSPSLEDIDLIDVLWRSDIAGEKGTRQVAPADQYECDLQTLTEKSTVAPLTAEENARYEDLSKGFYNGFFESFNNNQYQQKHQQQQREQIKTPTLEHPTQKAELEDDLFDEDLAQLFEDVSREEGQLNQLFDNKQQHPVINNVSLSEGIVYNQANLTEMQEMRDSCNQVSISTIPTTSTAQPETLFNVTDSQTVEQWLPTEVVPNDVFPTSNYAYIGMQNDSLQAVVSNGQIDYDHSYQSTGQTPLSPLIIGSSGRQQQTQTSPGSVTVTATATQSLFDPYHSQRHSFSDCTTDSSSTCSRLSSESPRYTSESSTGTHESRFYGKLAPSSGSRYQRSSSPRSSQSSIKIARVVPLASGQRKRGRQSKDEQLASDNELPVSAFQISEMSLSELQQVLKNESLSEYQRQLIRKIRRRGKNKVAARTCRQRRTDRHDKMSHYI
# [9] = target: Prothrombin (Homo sapiens, UniProt P00734); assay: Thrombin 1536 HTS Dose Response Confirmation. [Related pubchem assays: 1046 (Thrombin 1536 HTS; hits were confirmed in this assay)]; assay type: functional
# [10] = microbe, parasite or virus in culture; assay type: functional; settings: Mycobacterium tuberculosis
# [11] = target: Genome polyprotein (dengue virus type 2, UniProt P29990); assay: Dengue-2 NS5 methyltransferase inhibitors, primary screen, biochemical, confirmation dose response (AID 588689); assay type: functional
# [12] = target: Large T antigen (Simian virus 40, UniProt P03070); assay type: functional, Betapolyomavirus macacae;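 further: Confirmatory-stage PubChem screen for compounds that inhibit SV40 T antigen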
# [13] = target: SUMO-activating enzyme (Homo sapiens, UniProt Q9UBT2); assay: SUMOylation inhibitor hit validation, confirmation, SUMOylation inhibitor project, biochemical, AlphaScreen (AID 2018); assay type: functional
# [14] = target: T4, Calpain-2 catalytic subunit (Sus scrofa, UniProt P43367); assay: pig calpain II inhibitor potency, dose response, biochemical, fluorogenic peptide substrate (AID 1420); assay type: functional
# T4 sequence (P43367 whole entry): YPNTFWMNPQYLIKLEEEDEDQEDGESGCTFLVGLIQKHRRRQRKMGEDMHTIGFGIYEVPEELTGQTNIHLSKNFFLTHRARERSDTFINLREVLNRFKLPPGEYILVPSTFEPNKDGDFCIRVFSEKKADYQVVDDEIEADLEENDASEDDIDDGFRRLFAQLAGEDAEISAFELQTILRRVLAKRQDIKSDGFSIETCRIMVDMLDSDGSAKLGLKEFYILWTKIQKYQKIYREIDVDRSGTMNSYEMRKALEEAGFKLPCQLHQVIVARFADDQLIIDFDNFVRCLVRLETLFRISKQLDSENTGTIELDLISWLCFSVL
# [15] = HepG2 cell cytotoxicity, dose response, cytotoxicity control for non-replicating M. tuberculosis project (AID 489018); assay type: functional; settings: Mycobacterium tuberculosis
# [16] = cells; assay type: functional, cell-based
# [17] = cells; assay type: functional, cell-based; remark: listed apart in the source
# [18] = THP-1 cell cytotoxicity, dose response, cytotoxicity control for non-replicating M. tuberculosis project (AID 489025); assay type: functional
# [19] = test system: BJ; assay: cytotoxicity toward BJ-TERT fibroblasts, dose response, cell-based, RAS-independent, luminescence (AID 1933); assay type: functional; settings: Homo sapiens
# [20] = test system: BJ; assay: cells; assay type: functional, cell-based; settings: Homo sapiens
# [21] = test system: BJ; assay: cytotoxicity toward BJ-TERT-LT-ST fibroblasts, dose response, cell-based, RAS-independent, luminescence (AID 1935); assay type: functional; settings: Homo sapiens;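 further: BJ fibroblasts immortalized with TERT plus LT and ST oncogenes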
# [22] = cytotoxicity toward DRD oncogenic fibroblasts, dose response, cell-based, non-viral oncogenic, luminescence (AID 1934); assay type: functional; settings: Homo sapiens
# [23] = cells; assay type: functional
# [24] = Vero E6 cell cytotoxicity, dose response, cytotoxicity control for non-replicating M. tuberculosis project, secondary assay (AID 492998); assay type: functional, VeroE6; settings: Vero C1008
structure (smiles),measurement,setting,value
CCCOc1cc(NCc2ccccc2)c2ncn(C(C)C)c2c1,IC50,[1],5.67 µM (active)
same,AC50,[2],8.46 µM (active)
Cc1nn(C)cc1CN(C)C(=O)c1cc(-c2ccccc2)nc2ccc(Br)cc12,IC50,[3],75.1 µM (inactive)
same,IC50,[4],6.12 µM (active)
COc1cccc(OCC(O)CN2CCC(CN3C(=O)c4cccc5cccc(c45)C3=O)CC2)c1 (stereo unspecified),EC50,[5],9.64 µM (active)
same,AC50,[6],10.6 µM (active)
same,EC50,[7],2.83 µM (active)
O=C(NC(=S)NCCO)c1sc2ccccc2c1Cl,IC50,[3],> 138 µM (inactive)
same,IC50,[4],3.4 µM (active)
Cn1c(-c2ccc(Br)o2)nc2cc(Br)ccc21,IC50,[8],> 100 µM (inactive)
OC(CN1CCCC1)Cn1ccc2ccccc21 (stereo unspecified),AC50,[6],16.1 µM (active)
CCOC(=O)N1CCN(C(=O)CSCC(=O)Nc2nc(-c3ccc(Cl)s3)cs2)CC1,IC50,[9],1.95 µM (active)
c1cc2c3c(cccc3c1)NC1(CCC3(CC1)Nc1cccc4cccc(c14)N3)N2,CC50,[10],20 µM (active)
same,IC50,[1],7.06 µM (active)
COc1cc(C(C2C(=O)CC(C)(C)CC2=O)C2C(=O)CC(C)(C)CC2=O)ccc1O,IC50,[11],62.3 µM (active)
Cc1ccc(-n2nc3c(=S)[nH]nc(C)c3c2C)cc1,IC50,[4],0.143 µM (active)
Cc1ccc(-n2nc3c(S)nnc(C)c3c2C)cc1,IC50,[3],> 138 µM (inactive)
CC(C)CCC(C)N/C=C1/C(=O)N(Cc2ccccc2)C(=O)c2ccccc21 (stereo unspecified),IC50,[1],7.34 µM (active)
CCOc1ccc(NCc2cccn2-c2nnc(N3CCC(C(=O)NCCCN4CCCCC4C)CC3)s2)cc1 (stereo unspecified),AC50,[6],19.6 µM (active)
same,IC50,[12],19.5 µM (active)
COC(=O)c1cc(NC(=O)CN(c2ccc3c(c2)OCO3)S(C)(=O)=O)ccc1Cl,IC50,[8],> 100 µM (inactive)
COC(=O)c1n[nH]c(NC(=O)C(C)(C)C)n1,IC50,[9],1.43 µM (active)
COC(=O)c1c(NC(=O)CN2CCN(Cc3ccc4c(c3)OCO4)CC2)sc(C)c1C,IC50,[8],> 100 µM (inactive)
same,EC50,[5],> 60 µM (not active)
same,EC50,[7],1.88 µM (active)
Clc1ccc(Cn2nnc(-c3ccccc3)n2)cc1,IC50,[8],12.6 µM (active)
O=c1[nH]c(=O)n(Cc2ccccc2)c2c1C(C(F)(F)F)(C(F)(F)F)N=C(c1ccco1)N2,IC50,[9],31.5 µM (active)
O=C1/C(=C/c2coc3ccc(O)cc3c2=O)SC(=S)N1c1ccccc1,IC50,[13],39.4 µM (active)
Cc1cc(NC(=O)CSc2nc3cc(C(=O)NCCCOC(C)C)ccc3c(=O)n2Cc2ccco2)no1,IC50,[14],16.1 µM (not active)
same,IC50,[13],38.3 µM (active)
Cc1cc(NC(=O)COc2ccc3ccccc3c2Br)no1,IC50,[3],133 µM (inactive)
same,IC50,[4],1.39 µM (active)
Cc1nn(-c2ncc(C(F)(F)F)cc2Cl)c(=O)n1-c1ccccc1,IC50,[8],> 100 µM (inactive)
N#C/C(=C\c1ccccc1)C(=O)NNS(=O)(=O)c1cccc([N+](=O)[O-])c1,IC50,[11],51.8 µM (active)
C=CCOc1ccc(C(c2c(O)nc(SC)nc2O)c2c(O)nc(SC)nc2O)cc1,IC50,[11],33.3 µM (active)
O=[N+]([O-])c1cccnc1N/N=C/c1ccccc1O,CC50,[15],14.4 µM (active)
same,EC50,[16],6.41 µM (active)
same,EC50,[17],> 350 µM (not active)
same,CC50,[18],0.766 µM (active)
same,EC50,[19],9.77 µM (active)
same,AC50,[2],0.691 µM (active)
same,EC50,[20],10.9 µM (active)
same,EC50,[21],21.6 µM (active)
same,EC50,[22],8.92 µM (active)
same,IC50,[23],3.92 µM (active)
same,CC50,[24],3.08 µM (active)
Cc1ccc(NC(C)C(=O)N/N=C/c2ccc([N+](=O)[O-])s2)cc1 (stereo unspecified),EC50,[5],> 60 µM (not active)
same,CC50,[18],25.9 µM (active)
same,IC50,[23],7.04 µM (active)
same,CC50,[24],15.8 µM (active)
same,EC50,[7],0.494 µM (active)
